Data published in ChEMBL document CHEMBL1135023, “A lipophilic thioflavin-T derivative for positron emission tomography (PET) imaging of amyloid in brain” (Bioorg Med Chem Lett, 2002).
pKi: −log10 of the molar value.

What was measured:
Mus musculus [1] = experiment: Compound was tested in vivo for mouse brain uptake after 30 min; Mouse brain uptake per g; assay type: functional, organism-based
[2] = In vitro binding using synthetic aggregated Abeta(1-40) fibrils
[3] = Octanol-water partition at pH 7.4; assay type: physicochemical
Mus musculus [4] = experiment: Compound was tested in vivo for mouse brain uptake after 2 min; Mouse brain uptake per g; assay type: functional, organism-based
[5] = Ratio of 2-30 min mouse brain uptakes per g was determined; assay type: functional

CNc1ccc(-c2nc3ccc(C)cc3s2)cc1
ID/g (Mus musculus [1]): 2.8%
pKi [2]: 8.00
logD [3]: 3.4
ID/g (Mus musculus [4]): 7.6%
Ratio [5]: 2.7

Cc1ccc2c(c1)sc(-c1ccc(N(C)C)cc1)[n+]2C
logD [3]: 0.57

CNc1ccc(-c2nc3ccccc3s2)cc1
ID/g (Mus musculus [1]): 1.7%
logD [3]: 2.7
ID/g (Mus musculus [4]): 12.9%
